From patent publication US6809091B1, “Substances capable of inducing apoptosis” (Takara Bio Inc., priority 1998, dated 2004) come the findings set out here.

In one assay the test system is HL-60 cells. The assay is described as follows: measurement of apoptosis cells using FACScan. The class given is cell-based, human. As to conditions: HL-60, 24 hours and 48 hours. How it is done:
(2) HL-60 cells which were incubated on an RPMI 1640 medium containing 10% of fetal bovine serum processed at 56° C. for 30 minutes were suspended in an RPMI 1640 medium to make 2.5×10^5 cells/5 ml. […]

A further assay relates to human TGF-β. Description: cytokine production in DSEK cells, ELISA. It counts as cell-based. As to conditions: DSEK cell incubation, supernatant every 24 hours. How it is done:
(§1) Now, in the DSEK cell incubation, 150 μl/well of the supernatant liquid of the medium were recovered every 24 hours and influence of 4-hydroxy-2-cyclopenten-1-one or 4,5-dihydroxy-2-pentenal on the production of cytokines (human TGF-β, human FGF-β, human IL-1α and human IL-10) was measured using an ELISA-kit specific to each of the cytokine (the kit manufactured by INTERGEN or human FGF-β and human IL-10; and the kit manufactured by Promega for human IL-1α and human TGF-β).

The test system of a further assay is human IL-10. The assay is described as follows: cytokine production in DSEK cells, ELISA. It counts as cell-based. The note with it: DSEK cell incubation, supernatant every 24 hours. As for the experimental part:
as §1
In general terms: ELISA stands for enzyme-linked immunosorbent assay.

The test system of assay [1] is NO production in RAW 264.7 cells. The assay is described as follows: inhibition of NO production, NO2− by Griess reagent. The class given is cell-based. As for the experimental part:
(1) RAW 264.7 cells (ATCC TIB 71) were suspended to an extent of 3×10^5 cells/ml in an Eagle's medium modified by Dulbecco (manufactured by BioWhittaker; 12-917F) containing 10% fetal bovine serum (manufactured by Gibco), no Phenol Red and 2 mM of L-glutamine (manufactured by Lifetech Oriental; 25030-149) and each 500 μl of the suspension were added to each well of a 48-well microtiter plate and incubated at 37° C. for 12 hours in the presence of 5% carbon dioxide gas. To the well were added 10 μl of a 50 μg/ml lipopolysaccharide (LPS; manufactured by Sigma, L-2012) or each 10 μl of a 2.5 μg/ml of LPS and a 500 units/ml of interferon γ (manufactured by Genzyme; code MG-IFN), then 10 μl of a 1000, 500 or 250 μM aqueous solution of 2-(trans-3,4-dihydroxy-1-butenyl)-4-(trans-2-formylvinyl)-1,3-dioxolane were added, the mixture was incubated for 18 hours more and the NO2^− concentration generated by oxidation of NO in the medium was measured. Incidentally, a section to which LPS and interferon γ were not added and a section to which 2-(trans-3,4-dihydroxy-1-butenyl)-4-(trans-2-formylvinyl)-1,3-dioxolane was not added were prepared as controls.
After the above incubation, 100 μl of a 4% Griess reagent (manufactured by Sigma; G4410) were added to 100 μl of the medium, the mixture was allowed to stand at room temperature for 15 minutes and the absorbance at 490 nm was measured. From a calibration curve prepared by NaNO2 of known concentrations dissolved in the above medium, the NO2^− concentration in the medium was calculated. All measurements were conducted in three series.
On the technique in general: Nitrite, measured by Griess reagent, commonly stands in for NO production.

Molecules are shown by their SMILES.

For the molecule `Nc1nc2c(ncn2C2C=CC(=O)C2)c(=O)[nH]1` (stereo not drawn) [4-(9-guaninyl)-2-cyclopenten-1-one], in the assay on HL-60 cells, the “final concentration at which apoptosis cells were confirmed” value is at least 20 µM. Besides, in the assay with human TGF-β, the “production of human TGF-β” value is on record as “inhibited”.

As for `O=CC=CC(O)CO` (single isomer, unassigned) [4,5-dihydroxy-2-pentenal, trans-4,5-dihydroxy-2-pentenal], the “production of human IL-10” value with human IL-10 is listed as “activated”.

In the case of `O=C/C=C/C1COC(/C=C/C(O)CO)O1` (stereo not drawn) [2-(trans-3,4-dihydroxy-1-butenyl)-4-(trans-2-formylvinyl)-1,3-dioxolane], in assay [1] (18 hours), the “induction of NO production by LPS” value is “inhibited”; the “induction of NO production by LPS and interferon γ” value is listed as “inhibited”. In addition, the inhibition at 10 µM in assay [1] (Mus musculus, RAW264.7, final concentration of 10 μM, read-out: inhibiting activity for NO production) is around 50%.
